{
  "source": "ChEMBL document CHEMBL5634130",
  "about": "“Exploring the structural-activity relationship of hexahydropyrazino[1,2-d]pyrido[3,2-b][1,4]oxazine derivatives as potent and orally-bioavailable PARP7 inhibitors” (Eur J Med Chem, 2023)",
  "key": {"[1]": {"assay": "AUC in fasted Beagle dog at 2 mg/kg, iv measured for 24 hrs by LC-MS analysis", "format": "ADME, organism-based, Canis lupus familiaris", "conditions": "Beagle, in vivo"}, "[2]": {"target": "Poly [ADP-ribose] polymerase 1 (Homo sapiens, UniProt P09874)", "sequence (P09874 whole entry)": "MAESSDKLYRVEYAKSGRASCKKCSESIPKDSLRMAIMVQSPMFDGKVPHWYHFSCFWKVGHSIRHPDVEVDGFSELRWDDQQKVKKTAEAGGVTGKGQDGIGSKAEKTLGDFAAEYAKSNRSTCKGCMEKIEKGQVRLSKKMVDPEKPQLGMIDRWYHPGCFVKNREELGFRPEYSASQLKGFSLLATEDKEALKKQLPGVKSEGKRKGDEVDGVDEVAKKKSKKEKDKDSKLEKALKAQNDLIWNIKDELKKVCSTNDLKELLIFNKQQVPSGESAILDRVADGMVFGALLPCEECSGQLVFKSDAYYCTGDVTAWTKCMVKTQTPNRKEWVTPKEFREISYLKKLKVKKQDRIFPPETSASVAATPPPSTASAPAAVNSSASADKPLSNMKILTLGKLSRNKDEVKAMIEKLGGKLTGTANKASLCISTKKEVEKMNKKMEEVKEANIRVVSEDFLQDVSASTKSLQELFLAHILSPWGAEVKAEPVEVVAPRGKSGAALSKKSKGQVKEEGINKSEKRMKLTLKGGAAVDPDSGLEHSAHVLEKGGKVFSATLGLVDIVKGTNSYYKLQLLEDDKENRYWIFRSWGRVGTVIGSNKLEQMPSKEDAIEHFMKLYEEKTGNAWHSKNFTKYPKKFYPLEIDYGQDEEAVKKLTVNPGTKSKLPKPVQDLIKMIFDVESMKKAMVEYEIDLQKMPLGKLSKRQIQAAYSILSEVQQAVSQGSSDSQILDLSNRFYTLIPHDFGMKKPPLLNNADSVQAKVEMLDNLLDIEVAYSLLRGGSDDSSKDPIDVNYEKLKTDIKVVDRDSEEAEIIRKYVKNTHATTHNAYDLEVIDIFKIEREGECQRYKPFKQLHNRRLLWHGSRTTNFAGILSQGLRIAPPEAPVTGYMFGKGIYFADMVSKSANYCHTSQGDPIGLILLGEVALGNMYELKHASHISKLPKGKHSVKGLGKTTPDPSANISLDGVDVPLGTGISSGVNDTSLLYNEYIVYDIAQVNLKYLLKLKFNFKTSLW", "assay": "Inhibition of PARP1 (unknown origin)"}, "[3]": {"assay": "Volume of distribution at steady state in fasted ICR mouse at 2 mg/kg, iv measured for 24 hrs by LC-MS analysis", "format": "ADME, organism-based", "conditions": "in vivo, read-out: Vdss"}, "[4]": {"assay": "Clearance in fasted ICR mouse at 2 mg/kg, iv measured for 24 hrs by LC-MS analysis", "format": "ADME, organism-based", "conditions": "in vivo"}, "[5]": {"assay": "Kinetic solubility of compound at pH 2", "format": "physicochemical", "conditions": "buffer, read-out: Kinetic_solubility"}, "[6]": {"assay": "Tmax in fasted Beagle dog at 10 mg/kg, po measured for 24 hrs by LC-MS analysis", "format": "ADME, organism-based, Canis lupus familiaris", "conditions": "in vivo"}, "[7]": {"assay": "Plasma protein binding in human at 2 uM incubated for 1 hr by LC/MS analysis", "format": "ADME, cell-free", "conditions": "read-out: PPB (converted)"}, "[8]": {"assay": "Volume of distribution at steady state in fasted Beagle dog at 2 mg/kg, iv measured for 24 hrs by LC-MS analysis", "format": "ADME, organism-based, Canis lupus familiaris", "conditions": "in vivo, read-out: Vdss"}, "[9]": {"target": "T1, Protein mono-ADP-ribosyltransferase PARP12 (Homo sapiens, UniProt Q9H0J9)", "T1 sequence (Q9H0J9 whole entry)": "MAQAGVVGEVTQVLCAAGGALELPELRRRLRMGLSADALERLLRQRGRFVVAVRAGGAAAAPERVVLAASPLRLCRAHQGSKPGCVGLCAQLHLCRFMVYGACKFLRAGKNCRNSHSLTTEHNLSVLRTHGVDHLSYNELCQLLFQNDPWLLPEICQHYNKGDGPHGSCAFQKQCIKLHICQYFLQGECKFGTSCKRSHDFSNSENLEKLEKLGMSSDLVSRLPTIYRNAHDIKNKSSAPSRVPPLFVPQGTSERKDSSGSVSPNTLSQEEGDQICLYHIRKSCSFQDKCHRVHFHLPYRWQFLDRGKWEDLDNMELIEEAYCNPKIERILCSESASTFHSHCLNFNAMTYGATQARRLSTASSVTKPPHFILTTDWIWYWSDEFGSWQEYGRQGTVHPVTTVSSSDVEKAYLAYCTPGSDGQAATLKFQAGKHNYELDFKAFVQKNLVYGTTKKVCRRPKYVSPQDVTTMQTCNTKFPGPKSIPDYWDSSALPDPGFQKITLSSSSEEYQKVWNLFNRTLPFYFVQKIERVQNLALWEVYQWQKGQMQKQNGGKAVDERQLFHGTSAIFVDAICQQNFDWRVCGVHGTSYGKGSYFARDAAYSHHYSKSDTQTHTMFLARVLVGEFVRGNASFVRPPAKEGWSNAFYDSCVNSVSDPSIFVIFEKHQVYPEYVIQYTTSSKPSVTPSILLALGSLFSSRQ", "assay": "Inhibition of PARP12 (unknown origin)"}, "Cytochrome P450 2C19": {"target": "Cytochrome P450 2C19 (Homo sapiens, UniProt P33261)", "sequence (P33261 whole entry)": "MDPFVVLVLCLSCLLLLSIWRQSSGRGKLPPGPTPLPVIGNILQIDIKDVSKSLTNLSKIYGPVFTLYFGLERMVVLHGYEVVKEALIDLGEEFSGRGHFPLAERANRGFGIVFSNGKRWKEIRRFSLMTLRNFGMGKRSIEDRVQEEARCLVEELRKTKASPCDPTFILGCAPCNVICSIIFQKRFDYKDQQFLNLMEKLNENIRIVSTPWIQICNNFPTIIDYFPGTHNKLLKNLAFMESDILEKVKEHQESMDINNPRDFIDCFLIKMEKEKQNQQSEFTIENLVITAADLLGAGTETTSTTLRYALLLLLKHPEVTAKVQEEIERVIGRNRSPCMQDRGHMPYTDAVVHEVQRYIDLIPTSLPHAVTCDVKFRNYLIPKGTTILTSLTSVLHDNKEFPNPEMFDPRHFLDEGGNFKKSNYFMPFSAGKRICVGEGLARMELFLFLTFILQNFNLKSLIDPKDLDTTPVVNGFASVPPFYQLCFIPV", "assay": "Inhibition of CYP2C19 in human liver microsomes using mephenytoin as substrate preincubated for 10 mins followed by substrate addition measured for 30 mins by LC-MS analysis", "format": "ADME, Microsome"}, "[10]": {"assay": "Thermodynamic solubility of compound at pH 6.5", "format": "physicochemical", "conditions": "buffer, read-out: Therm_solubility"}, "[11]": {"assay": "Thermodynamic solubility of compound at pH 7.4", "format": "physicochemical", "conditions": "buffer, read-out: Therm_solubility"}, "[12]": {"assay": "Metabolic stability in human liver microsomes assessed as intrinsic clearance preincubated for 5 mins followed by NADPH addition measured for 1 hr by LC-MS analysis", "format": "ADME, Microsome", "conditions": "time 65 min, read-out: CLH"}, "[13]": {"assay": "Efflux ratio of apparent permeability across basolateral to apical side over apical to basolateral side in MDCKII-MDR1 cells incubated for 2 hrs by LC-MS analysis", "format": "ADME, cell-based, Canis lupus familiaris", "conditions": "dog, MDCK-MDR1"}, "RAW264.7": {"system": "RAW264.7", "assay": "Inhibition of PARP7 in mouse RAW264.7 cells assessed as increase in IFN-beta level incubated for 24 hrs by ELISA", "format": "cell-based"}, "NCI-H1373": {"system": "NCI-H1373", "assay": "Antitumor activity against human NCI-H1373 cells xenografted in […] SCID mouse model assessed as tumor growth inhibition at 30 mg/kg, po administered everyday measured after 21 days relative to control", "format": "functional", "conditions": "NCI-H1373, 504 h, time 21 day, read-out: TGI"}, "[14]": {"assay": "AUC in fasted ICR mouse at 2 mg/kg, iv measured for 24 hrs by LC-MS analysis", "format": "ADME, organism-based", "conditions": "in vivo"}, "[15]": {"assay": "Apparent permeability across apical to basolateral side in MDCKII-MDR1 cells incubated for 2 hrs by LC-MS analysis", "format": "ADME, cell-based, Canis lupus familiaris", "conditions": "dog, MDCK-MDR1"}, "[16]": {"assay": "Toxicity in […] SCID mouse model xenografted with human NCI-H1373 cells assessed as animal death at 30 mg/kg, po measured for 21 days", "format": "organism-based", "conditions": "in vivo, 504 h, time 21 day"}, "[17]": {"assay": "Thermodynamic solubility of compound at pH 2", "format": "physicochemical", "conditions": "buffer, read-out: Therm_solubility"}, "[18]": {"assay": "AUC in fasted Beagle dog at 10 mg/kg, po measured for 24 hrs by LC-MS analysis", "format": "ADME, organism-based, Canis lupus familiaris", "conditions": "in vivo"}, "MDA-MB-436": {"system": "MDA-MB-436", "assay": "Antiproliferative activity against human MDA-MB-436 cells assessed as inhibition of cell viability incubated for 7 days by luminescence based assay", "format": "functional", "conditions": "MDA-MB-436, 168 h"}, "[19]": {"assay": "Half life in fasted Beagle dog at 2 mg/kg, iv measured for 24 hrs by LC-MS analysis", "format": "ADME, organism-based, Canis lupus familiaris", "conditions": "in vivo"}, "Cytochrome P450 1A2": {"target": "T2, Cytochrome P450 1A2 (Homo sapiens, UniProt P05177)", "T2 sequence (P05177 whole entry)": "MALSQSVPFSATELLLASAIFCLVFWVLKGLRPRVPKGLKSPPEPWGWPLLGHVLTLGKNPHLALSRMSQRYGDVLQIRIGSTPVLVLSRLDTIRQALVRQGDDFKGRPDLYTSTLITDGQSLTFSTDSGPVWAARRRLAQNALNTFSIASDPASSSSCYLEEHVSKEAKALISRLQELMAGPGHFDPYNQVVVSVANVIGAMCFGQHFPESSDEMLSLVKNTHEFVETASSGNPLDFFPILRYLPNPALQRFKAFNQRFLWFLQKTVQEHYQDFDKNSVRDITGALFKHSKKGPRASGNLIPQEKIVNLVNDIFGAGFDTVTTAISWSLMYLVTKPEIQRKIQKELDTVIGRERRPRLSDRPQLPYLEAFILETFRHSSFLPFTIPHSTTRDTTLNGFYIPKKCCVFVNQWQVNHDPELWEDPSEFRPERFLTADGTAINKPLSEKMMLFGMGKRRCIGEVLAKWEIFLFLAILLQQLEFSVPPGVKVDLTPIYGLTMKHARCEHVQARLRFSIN", "assay": "Inhibition of CYP1A2 in human liver microsomes using phenacetin as substrate preincubated for 10 mins followed by substrate addition measured for 30 mins by LC-MS analysis", "format": "ADME, Microsome"}, "[20]": {"assay": "Metabolic stability in rat liver microsomes assessed as intrinsic clearance preincubated for 5 mins followed by NADPH addition measured for 1 hr by LC-MS analysis", "format": "ADME, Microsome", "conditions": "time 65 min, read-out: CLH"}, "[21]": {"assay": "Clearance in fasted Beagle dog at 2 mg/kg, iv measured for 24 hrs by LC-MS analysis", "format": "ADME, organism-based, Canis lupus familiaris", "conditions": "in vivo"}, "[22]": {"assay": "Oral bioavailability in fasted Beagle dog at 10 mg/kg measured for 24 hrs by LC-MS analysis", "format": "ADME, organism-based, Canis lupus familiaris", "conditions": "in vivo"}, "[23]": {"assay": "Apparent permeability across basolateral to apical side in MDCKII-MDR1 cells incubated for 2 hrs by LC-MS analysis", "format": "ADME, cell-based, Canis lupus familiaris", "conditions": "dog, MDCK-MDR1"}},
  "note": "Activity calls are given as the source filed them. The rule behind the calls is not given here.",
  "data": [
    {"smiles": "O=C(CCOC[C@@H]1CCN1c1cn[nH]c(=O)c1C(F)(F)F)N1CCN2c3ncc(C(F)(F)F)cc3OC[C@@H]2C1", "values": [
      {"measurement": "AUC at 24 h", "setting": "[1]", "result": 3480, "unit": "ng·h/mL"},
      {"measurement": "IC50", "setting": "[2]", "result": 0.492, "unit": "µM"},
      {"measurement": "Vd", "setting": "[3]", "result": 1.77, "unit": "L/kg"},
      {"measurement": "clearance", "setting": "[4]", "result": 49.2, "unit": "mL/min/kg"},
      {"measurement": "solubility kinetic", "setting": "[5]", "result": 166, "unit": "µM"},
      {"measurement": "Tmax", "setting": "[6]", "result": 0.41, "unit": "h"},
      {"measurement": "fraction unbound at 1 h, 2 µM", "setting": "[7]", "result": 0.002},
      {"measurement": "Vd", "setting": "[8]", "result": 0.948, "unit": "L/kg"},
      {"measurement": "IC50", "setting": "[9]", "result": 0.36, "unit": "µM"},
      {"measurement": "IC50", "setting": "Cytochrome P450 2C19", "result": 7.55, "unit": "µM"},
      {"measurement": "solubility thermodynamic", "setting": "[10]", "result": 113, "unit": "µg/mL"},
      {"measurement": "solubility thermodynamic", "setting": "[11]", "result": 114, "unit": "µg/mL"},
      {"measurement": "CLint scaled", "setting": "[12]", "result": 19.8, "unit": "mL/min/kg"},
      {"measurement": "efflux ratio at 2 h", "setting": "[13]", "result": 16.3},
      {"measurement": "inhibition", "setting": "RAW264.7", "result": "Active"},
      {"measurement": "inhibition in vivo at 30 mg/kg", "setting": "NCI-H1373", "result": 75.2, "unit": "%"},
      {"measurement": "AUC at 24 h", "setting": "[14]", "result": 680, "unit": "ng·h/mL"},
      {"measurement": "Papp A→B at 2 h", "setting": "[15]", "result": 0.202, "unit": "×10⁻⁶ cm/s"},
      {"measurement": "Activity", "setting": "[16]", "result": "Non-Toxic"},
      {"measurement": "solubility thermodynamic", "setting": "[17]", "result": 601, "unit": "µg/mL"},
      {"measurement": "AUC", "setting": "[18]", "result": 7860, "unit": "ng·h/mL"},
      {"measurement": "IC50", "setting": "MDA-MB-436", "result": "> 10", "unit": "µM"},
      {"measurement": "half-life", "setting": "[19]", "result": 1.3, "unit": "h"},
      {"measurement": "IC50", "setting": "Cytochrome P450 1A2", "result": "> 30", "unit": "µM"},
      {"measurement": "CLint scaled", "setting": "[20]", "result": 88.8, "unit": "mL/min/kg"},
      {"measurement": "clearance", "setting": "[21]", "result": 7.5, "unit": "mL/min/kg"},
      {"measurement": "bioavailability", "setting": "[22]", "result": 45.2, "unit": "%"},
      {"measurement": "Papp B→A at 2 h", "setting": "[23]", "result": 3.3, "unit": "×10⁻⁶ cm/s"}
    ]}
  ]
}
